Laboratory results published in US20240158412A1 (Faxian Therapeutics, LLC, priority 2021, published 2024).
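Note: fluorescence intensity readout of USP7 enzymatic activity, reaction incubated 90 min at room temperature.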

These molecules were tested against USP7 (Homo sapiens, UniProt Q93009) (assay: biochemical).
Sequence of USP7 (Q93009 whole entry): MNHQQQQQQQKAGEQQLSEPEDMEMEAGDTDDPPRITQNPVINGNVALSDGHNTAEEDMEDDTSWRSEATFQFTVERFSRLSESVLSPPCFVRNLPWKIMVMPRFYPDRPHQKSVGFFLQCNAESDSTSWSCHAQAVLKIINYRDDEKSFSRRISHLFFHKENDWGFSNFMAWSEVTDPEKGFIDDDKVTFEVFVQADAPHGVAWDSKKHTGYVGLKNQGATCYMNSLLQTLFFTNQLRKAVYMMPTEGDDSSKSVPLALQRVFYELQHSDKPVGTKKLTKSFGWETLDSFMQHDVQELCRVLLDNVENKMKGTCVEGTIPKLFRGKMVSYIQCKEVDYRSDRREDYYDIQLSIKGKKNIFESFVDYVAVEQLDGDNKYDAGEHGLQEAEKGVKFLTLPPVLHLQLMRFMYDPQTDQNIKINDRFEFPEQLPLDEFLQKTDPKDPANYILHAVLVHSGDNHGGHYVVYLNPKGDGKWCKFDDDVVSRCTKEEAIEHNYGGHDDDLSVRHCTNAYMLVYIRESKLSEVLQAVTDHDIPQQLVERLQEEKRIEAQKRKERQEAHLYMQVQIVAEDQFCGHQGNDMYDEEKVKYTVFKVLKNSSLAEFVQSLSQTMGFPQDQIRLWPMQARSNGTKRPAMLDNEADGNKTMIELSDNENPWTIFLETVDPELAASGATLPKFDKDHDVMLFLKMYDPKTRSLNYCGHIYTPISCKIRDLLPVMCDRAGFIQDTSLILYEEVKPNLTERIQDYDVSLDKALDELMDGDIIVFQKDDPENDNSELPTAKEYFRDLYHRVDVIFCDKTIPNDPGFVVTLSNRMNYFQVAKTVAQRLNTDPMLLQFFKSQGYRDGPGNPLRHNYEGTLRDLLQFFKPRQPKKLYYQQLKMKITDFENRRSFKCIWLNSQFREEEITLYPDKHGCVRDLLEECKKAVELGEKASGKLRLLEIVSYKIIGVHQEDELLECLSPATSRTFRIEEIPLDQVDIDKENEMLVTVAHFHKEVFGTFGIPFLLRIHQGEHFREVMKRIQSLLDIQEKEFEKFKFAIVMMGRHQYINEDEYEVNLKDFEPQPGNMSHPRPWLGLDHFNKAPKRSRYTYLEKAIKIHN
With `O=c1ccn(CC(F)(F)F)c(=O)n1Cc1cc2nccc(-c3cc(Cl)cc4c3N(C3CNC3)CCC4)c2s1` [Example 24, 3-[[7-[1-(azetidin-3-yl)-6-chloro-3,4-dihydro-2H-quinolin-8-yl]thieno[3,2-b]pyridin-2-yl]methyl]-1-(2,2,2-trifluoroethyl)pyrimidine-2,4-dione] the IC50 was under 10 nM.
In the case of `O=C1COC(=O)N1Cc1cc2nccc(-c3cc(Cl)cc4c3N(C3CNC3)CCC4)c2s1` [Example 27, 3-[[7-[1-(azetidin-3-yl)-6-chloro-3,4-dihydro-2H-quinolin-8-yl]thieno[3,2-b]pyridin-2-yl]methyl]oxazolidine-2,4-dione], the IC50 is reported as 10 to 100 nM.
For `O=C1CNCC(=O)N1Cc1cc2nccc(-c3cc(Cl)cc4c3N(C3CNC3)CCC4)c2s1` [Example 28, 1-[[7-[1-(azetidin-3-yl)-6-chloro-3,4-dihydro-2H-quinolin-8-yl]thieno[3,2-b]pyridin-2-yl]methyl]piperazine-2,6-dione], the IC50 was under 10 nM.
For `CC1(CN2CC(=O)N(Cc3cc4nccc(-c5cc(Cl)cc6c5N(C5CNC5)CCC6)c4s3)C(=O)C2)CC1` [Example 29, 1-((7-(1-(azetidin-3-yl)-6-chloro-1,2,3,4-tetrahydroquinolin-8-yl)thieno[3,2-b]pyridin-2-yl)methyl)-4-((1-methylcyclopropyl)methyl)piperazine-2,6-dione], the IC50 was 10 to 100 nM.
`COCCn1ccc(=O)n(Cc2cc3nccc(-c4cc(Cl)cc5c4N(C4CNC4)CCC5)c3s2)c1=O` [Example 30, 3-[[7-[1-(azetidin-3-yl)-6-chloro-3,4-dihydro-2H-quinolin-8-yl]thieno[3,2-b]pyridin-2-yl]methyl]-1-(2-methoxyethyl)pyrimidine-2,4-dione] gave an IC50 of under 10 nM.
With `CN1C(=O)N(Cc2cc3nccc(-c4cc(Cl)cc5c4N(C4CNC4)CCC5)c3s2)C(=O)C12CCC2` [Example 31, 7-((7-(1-(azetidin-3-yl)-6-chloro-1,2,3,4-tetrahydroquinolin-8-yl)thieno[3,2-b]pyridin-2-yl)methyl)-5-methyl-5,7-diazaspiro[3.4]octane-6,8-dione] the IC50 was 101 to 1000 nM.
Molecule `N#Cc1cc2c(c(-c3ccnc4cc(CN5C(=O)CCC5=O)sc34)c1)N(C1CNC1)CCC2` [Example 32, 1-(azetidin-3-yl)-8-[2-[(2,5-dioxopyrrolidin-1-yl)methyl]thieno[3,2-b]pyridin-7-yl]-3,4-dihydro-2H-quinoline-6-carbonitrile] has an IC50 of 10 to 100 nM.
`Cc1cc2c(c(-c3ccnc4cc(CN5C(=O)CCC5=O)sc34)c1)N(C1CNC1)CCC2` [Example 33, 1-[[7-[1-(azetidin-3-yl)-6-methyl-3,4-dihydro-2H-quinolin-8-yl]thieno[3,2-b]pyridin-2-yl]methyl]pyrrolidine-2,5-dione] showed an IC50 of 10 to 100 nM.
`O=c1cc(N2CCOCC2)cnn1Cc1cc2nccc(-c3cc(Cl)cc4c3N(C3CNC3)CCC4)c2s1` [Example 34] gave an IC50 of 10 to 100 nM.
`O=c1cc(NC2CCC2)cnn1Cc1cc2nccc(-c3cc(Cl)cc4c3N(C3CNC3)CCC4)c2s1` [Example 35, 2-[[7-[1-(azetidin-3-yl)-6-chloro-3,4-dihydro-2H-quinolin-8-yl]thieno[3,2-b]pyridin-2-yl]methyl]-5-(cyclobutylamino)pyridazin-3-one] gave an IC50 of 10 to 100 nM.
Molecule `O=c1cc(Oc2ccc(F)cc2)cnn1Cc1cc2nccc(-c3cc(Cl)cc4c3N(C3CNC3)CCC4)c2s1` [Example 36, 2-((7-(1-(azetidin-3-yl)-6-chloro-1,2,3,4-tetrahydroquinolin-8-yl)thieno[3,2-b]pyridin-2-yl)methyl)-5-(4-fluorophenoxy)pyridazin-3(2H)-one] has an IC50 of 10 to 100 nM.
In the case of `Oc1ccnn1Cc1cc2nccc(-c3cc(Cl)cc4c3N(C3CNC3)CCC4)c2s1` [Example 37, 2-[[7-[1-(azetidin-3-yl)-6-chloro-3,4-dihydro-2H-quinolin-8-yl]thieno[3,2-b]pyridin-2-yl]methyl]pyrazol-3-ol], the IC50 is reported as over 1000 nM.
In the case of `O=C(c1cc2nccc(-c3cc(Cl)cc4c3N(C3CNC3)CCC4)c2s1)N1CCC1` [Example 38, Azetidin-1-yl-[7-[1-(azetidin-3-yl)-6-chloro-3,4-dihydro-2H-quinolin-8-yl]thieno[3,2-b]pyridin-2-yl]methanone], the IC50 is reported as over 1000 nM.
